The subject of one experiment is U937 cell TNFα release. In words: U937 Cell TNFα Release Assay (LPS-stimulated, TNFα ELISA). It is filed as cell-based. Particulars: Homo sapiens, U-937, U937 cells. Here is the method:
U937 Cell TNFα Release Assay
The human monocyte-like cell line, U937 (ATCC #CRL-1593.2), is cultured in RPMI1640 media with 10% heat-inactivated fetal calf serum (GIBCO), glutamine and pen/strep at 37° C. and 5% CO2. Differentiation of U937 to monocytic/macrophage-like cells is induced by the addition of phorbol12-myristate 13-acetate (Sigma) at final concentration of 20 ng/ml to a culture of U937 cells at ˜0.5 million cells/ml and incubated for 24 hrs. The cells are centrifuged, washed with PBS and resuspended in fresh media without PMA and incubated for 24 hrs. Cells adherent to the culture flask are harvested by scraping, centrifugation, and resuspended in fresh media to 2 million cells/ml, and 0.2 ml is aliquoted to each of 96 wells in flat-bottom plate. Cells are then incubated for an additional 24 hrs to allow for recovery. […]
ELISA plates (NUNC-Immuno™ Plate Maxisorb™ Surface) were coated with purified mouse monoclonal IgG1 anti-human TNFα antibody (R&D Systems #MAB610; 1.25 ug/ml in sodium bicarbonate pH 8.0, 0.1 ml/well) and incubated at 4° C. […] Enzymatic conversion of ABTS to colored product was measured after 5-30 minutes using a SpectroMax 340 spectrophotometer (Molecular Devices) at 405 nm. TNF levels were quantitated from a recombinant human TNFα (R&D Systems #210-TA-010) standard curve using a quadratic parameter fit generated by SoftMaxPRO software. […]
Background: In an ELISA, binding on a coated surface is turned into a signal by an enzyme label.

The test system of another experiment is TNFα production. Nature of the experiment: Lipopolysaccharide (LPS)-induced TNFα production in rats (Rat LPS assay, serum TNFα ELISA). It is filed as in vivo, Lewis rats. Particulars: 20 mpk (IP).
For a further experiment, the target named is Recombinant MAPKAPK2 (Homo sapiens, UniProt P49137). Nature of the experiment: Determination of MK-2 IC50 (HSP-peptide phosphorylation, anion exchange resin capture assay). It is filed as biochemical. Here is the method: The phosphorylation of HSP-peptide ([…]) by MAPKAPK2 was measured using an anion exchange resin capture assay method. […] The reaction was terminated and [γ^33P]ATP was removed from solution by the addition of 150 μl of AG 1×8 ion exchange resin in 900 mM sodium formate pH 3.0. A 50 μl aliquot of head volume was removed from the quenched reaction mixture and added to a 96-well plate, 150 μl of Microscint-40 (Packard) was added and the amount of phosphorylated-peptide was determined. Allow the Microscint to sit in the plates for 60 minutes prior to counting.
Compounds are evaluated as potential inhibitors of the MK2 kinase by measuring their effects on MK2 phosphorylation of the peptide substrate. Compounds may be screened initially at two concentrations prior to determination of IC50 values. Screening results are expressed as percent inhibition at the concentrations of compound tested. For IC50 value determinations, compounds are tested at six concentrations in ten-fold serial dilutions with each concentration tested in triplicate. Results are expressed as IC50 values in micromolar. The assay is performed at a final concentration of 2% DMSO.

Setting [1] is: MK-2 Avg. IC50, Table I, aminocyanopyridine MK-2 inhibitors.
[2] abbreviates: MK-2 Avg. IC50, Table 2, tricyclic aminocyanopyridine MK-2 inhibitors.

SMILES strings stand for the structures.

For 50 molecules, IC50 and inhibition results are on record in US20040127519A1 (Pharmacia Corporation, priority 2002, published 2004).

In general, IC50 refers to the concentration that gives 50% inhibition. One may read the inhibition as the change of the read-out against control, counted positive when it falls.

Recombinant MAPKAPK2, sequence (P49137 whole entry, species assumed): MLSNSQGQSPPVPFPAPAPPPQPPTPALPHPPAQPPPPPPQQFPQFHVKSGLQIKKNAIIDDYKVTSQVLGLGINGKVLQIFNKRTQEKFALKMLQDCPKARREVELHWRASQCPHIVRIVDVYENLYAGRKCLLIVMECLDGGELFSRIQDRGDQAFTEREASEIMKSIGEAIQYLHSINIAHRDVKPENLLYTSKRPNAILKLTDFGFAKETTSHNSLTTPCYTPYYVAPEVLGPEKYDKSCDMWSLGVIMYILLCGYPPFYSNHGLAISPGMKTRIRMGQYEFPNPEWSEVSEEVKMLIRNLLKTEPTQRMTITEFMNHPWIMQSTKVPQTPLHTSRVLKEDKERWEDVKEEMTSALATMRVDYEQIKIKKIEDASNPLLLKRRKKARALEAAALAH

Molecule `C=CCNc1sc2c(-c3ccc(Br)cc3)c(C#N)c(N)nc2c1C#N` [Example 224, 2-(allylamino)-5-amino-7-(4-bromophenyl)thieno[3,2-b]pyridine-3,6-dicarbonitrile] showed an IC50 in the experiment with U937 cell TNFα release of 2.9 µM. Also, the inhibition at 20 mg/kg with TNFα production worked out at 60%.

On to `N#Cc1c(-c2ccco2)cc(-c2ccc(Cl)cc2)nc1N` [Example 144], for which, on Recombinant MAPKAPK2 (setting [1]), the concentration for half-maximal inhibition (IC50) is 182 µM.

For `Cc1cc(Cl)cc2c1Oc1nc(N)c(C#N)c(N)c1C2` [Example 66], on Recombinant MAPKAPK2 (setting [2]), the IC50 was determined as 136 µM.

Consider `CN(C)c1ccc2c(c1)Cc1c(nc(N)c(C#N)c1N)O2` [Example 52], for which, on Recombinant MAPKAPK2 (setting [2]), the IC50 is 17.6 µM.

Consider `N#Cc1c(N)nc2c(c1-c1ccccc1OC(F)F)CCc1[nH]ncc1-2` [Example 105], for which the concentration for half-maximal inhibition (IC50) on Recombinant MAPKAPK2 (setting [1]) was determined as 96.1 µM.

Turning to `N#Cc1c(-c2ccccc2)cc(-c2cccs2)nc1N` [Example 55], the IC50 at Recombinant MAPKAPK2 (setting [1]) stood at 26.9 µM.

For `N#Cc1c(N)nc2c(c1-c1ccco1)CCc1cc(C(=O)O)ccc1-2` [Example 5], on Recombinant MAPKAPK2 (setting [1]), the IC50 was 2.35 µM.

In the case of `N#Cc1c(N)nc2c(c1N)Cc1ccc(OCCN3CCCC3)cc1O2` [Example 25], the IC50 at Recombinant MAPKAPK2 (setting [2]) came to 1.68 µM.

Turning to `CC1Cc2n[nH]cc2-c2nc(N)c(C#N)c(-c3ccccc3F)c21` (stereo not shown) [Example 130], the half-maximal inhibitory concentration (IC50) at Recombinant MAPKAPK2 (setting [1]) was 142 µM.

As for `N#Cc1c(-c2ccco2)cc(-c2cn[nH]c2)nc1N` [Example 39], the IC50 at Recombinant MAPKAPK2 (setting [1]) was 11.6 µM.

As to `N#Cc1c(-c2ccccc2F)cc(-c2ccc[nH]2)nc1N` [Example 58], at Recombinant MAPKAPK2 (setting [1]), the IC50 was 29.3 µM.

`CN(C)CCOc1ccc2c(c1)Oc1nc(N)c(C#N)c(N)c1C2` [Example 28]: the IC50 at Recombinant MAPKAPK2 (setting [2]) was 1.75 µM.

`N#Cc1c(N)nc2c(c1N)Cc1ccc(OCCN)cc1O2` [Example 19]: at Recombinant MAPKAPK2 (setting [2]), the IC50 amounted to 0.82 µM.

Take `CC(C)OCC1Cc2c(nc(N)c(C#N)c2N)O1` (stereo not shown) [Example 123]: the IC50 at Recombinant MAPKAPK2 (setting [1]) stood at 125 µM.

In the case of `N#Cc1c(-c2ccco2)cc(-c2ccc(C(=O)O)cc2)nc1N` [Example 16], the half-inhibitory concentration (IC50) on Recombinant MAPKAPK2 (setting [1]) is 4.63 µM.

Consider `Cn1cnc(-c2cc(-c3ccco3)nc(N)c2C#N)c1` [Example 8], for which the IC50 at Recombinant MAPKAPK2 (setting [1]) was 2.88 µM.

`COc1cc2c(cc1OC)Oc1nc(N)c(C#N)c(NCc3ccccc3)c1C2` [Example 55]: the 50% inhibitory concentration (IC50) at Recombinant MAPKAPK2 (setting [2]) turned out to be 27.4 µM.

On to `COc1ccccc1-c1cc(-c2ccc(O)cc2)nc(N)c1C#N` [Example 145], for which the IC50 at Recombinant MAPKAPK2 (setting [1]) turned out to be 183 µM.

In the experiment with U937 cell TNFα release, `N#Cc1c(N)nc2c(c1-c1cccnc1)CCCCCC2` [Example 225, 2-amino-4-pyridin-3-yl-5,6,7,8,9,10-hexahydrocycloocta[b]pyridine-3-carbonitrile] registered an IC50 of 6.9 µM. The molecule further showed an inhibition at 20 mg/kg with TNFα production of 88%.

Take `N#Cc1c(N)nc2c(c1N)Cc1cc(C(=O)O)ccc1O2` [Example 20]: the IC50 on Recombinant MAPKAPK2 (setting [2]) stood at 0.857 µM.

For the molecule `COc1ccc2c(c1)Cc1c(nc(N)c(C#N)c1N)O2` [Example 53], the IC50 on Recombinant MAPKAPK2 (setting [2]) worked out at 19.7 µM.

For `N#Cc1c(N)nc2c(c1N)Cc1cccc(OCC(=O)O)c1O2` [Example 62], the IC50 at Recombinant MAPKAPK2 (setting [2]) came out at 72.2 µM.

In the case of `N#Cc1c(-c2ccco2)cc(-c2ccc(O)cc2)nc1N` [Example 121], the IC50 on Recombinant MAPKAPK2 (setting [1]) amounted to 122 µM.

`N#Cc1c(N)nc2c(c1N)C(C(C#N)C#N)c1cc(O)ccc1O2` (stereo not shown) [Example 35]: on Recombinant MAPKAPK2 (setting [2]), the IC50 is 4.22 µM.

`N#Cc1c(N)nc2c(c1-c1ccc(C(=O)O)cc1)CCc1[nH]ncc1-2` [Example 134]: the IC50 on Recombinant MAPKAPK2 (setting [1]) turned out to be 155 µM.

Take `N#Cc1c(N)nc2c(c1-c1ccccc1F)CCc1ccccc1-2` [Example 15]: the IC50 at Recombinant MAPKAPK2 (setting [1]) is 4.47 µM.

Consider `N#Cc1c(-c2ccco2)cc(-c2ccc(B(O)O)cc2)nc1N` [Example 47], for which the IC50 at Recombinant MAPKAPK2 (setting [1]) is 16.7 µM.

As for `N#Cc1c(-c2ccccc2F)cc(-c2ccco2)nc1N` [Example 13], the IC50 on Recombinant MAPKAPK2 (setting [1]) is 4.06 µM.

With `N#Cc1c(N)nc2c(c1-c1ccco1)CCc1ccccc1-2` [Example 36], the IC50 on Recombinant MAPKAPK2 (setting [1]) turned out to be 9.42 µM.

Consider `N#Cc1c(N)nc2c(c1-c1cccc3c1OCO3)CCc1[nH]ncc1-2` [Example 70], for which the IC50 on Recombinant MAPKAPK2 (setting [1]) came out at 43.2 µM.

As for `N#Cc1c(N)nc2c(c1-c1cccnc1)CCc1n[nH]cc1-2` [Example 86], the IC50 on Recombinant MAPKAPK2 (setting [1]) is 62.5 µM.

`N#Cc1c(N)nc2c(c1N)Cc1cc(-c3ccccc3)ccc1O2` [Example 65]: the IC50 at Recombinant MAPKAPK2 (setting [2]) was 83.8 µM.

Consider `CCNc1nc2c(c(NCC)c1C#N)Cc1ccc(OCC)cc1O2` [Example 68], for which the IC50 on Recombinant MAPKAPK2 (setting [2]) stood at 148 µM.

In the case of `COc1cc2c(cc1OC)Oc1nc(N)c(C#N)c(NCCN(C)C)c1C2` [Example 63], the IC50 at Recombinant MAPKAPK2 (setting [2]) came to 79.1 µM.

Consider `N#Cc1c(N)nc2c(c1N)Cc1cc([N+](=O)[O-])ccc1O2` [Example 60], for which, on Recombinant MAPKAPK2 (setting [2]), the IC50 is 62.2 µM.

For `COc1cccc2c1Oc1nc(N)c(C#N)c(N)c1C2` [Example 24], the IC50 on Recombinant MAPKAPK2 (setting [2]) came out at 1.37 µM.

Turning to `COc1ccc(-c2cc(-c3ccccc3F)c(C#N)c(N)n2)cc1` [Example 94], at Recombinant MAPKAPK2 (setting [1]), the IC50 came to 70.4 µM.

Turning to `N#Cc1c(N)nc2c(c1-c1ccco1)CCc1c[nH]cc1-2` [Example 24], at Recombinant MAPKAPK2 (setting [1]), the IC50 came out at 6.2 µM.

As for `CC(=O)Nc1ccc(-c2c(C#N)c(N)nc3c2CCc2[nH]ncc2-3)cc1` [Example 62], the IC50 on Recombinant MAPKAPK2 (setting [1]) is 35.9 µM.

For the molecule `N#Cc1c(N)nc2c(c1-c1ccco1)CCc1cc(O)ccc1-2` [Example 10], the IC50 at Recombinant MAPKAPK2 (setting [1]) was 3.48 µM.

Take `C=CCOc1ccc2c(c1)Oc1nc(N)c(C#N)c(N)c1C2` [Example 56]: the IC50 at Recombinant MAPKAPK2 (setting [2]) was 33.8 µM.

For `CC(C)(C)NS(=O)(=O)c1ccc(-c2cc(-c3ccccc3)c(C#N)c(N)n2)cc1` [Example 90], the IC50 on Recombinant MAPKAPK2 (setting [1]) worked out at 68 µM.

For the molecule `N#Cc1c(-c2ccc(Oc3ccccc3)cc2)cc(-c2ccco2)nc1N` [Example 85], on Recombinant MAPKAPK2 (setting [1]), the IC50 was 59.3 µM.

With `COc1ccc(Nc2c(C#N)c(N)nc3c2Cc2cc(OC)c(OC)cc2O3)cc1` [Example 40], the IC50 on Recombinant MAPKAPK2 (setting [2]) stood at 6.11 µM.

On to `N#Cc1c(N)nc2c(c1-c1ccco1)CCc1cc(N)ccc1-2` [Example 74], for which, on Recombinant MAPKAPK2 (setting [1]), the half-maximal inhibitory concentration (IC50) stood at 46.8 µM.

Consider `N#Cc1c(-c2ccco2)cc(-c2ccc(Cl)c(Cl)c2)nc1N` [Example 135], for which the IC50 at Recombinant MAPKAPK2 (setting [1]) was determined as 156 µM.

On to `COc1ccc2c(c1)Oc1nc(N)c(C#N)c(N)c1C2` [Example 27], for which, on Recombinant MAPKAPK2 (setting [2]), the IC50 was 1.72 µM.

Turning to `N#Cc1c(-c2ccccc2F)cc(-c2ccco2)nc1N1CCCCC1` [Example 143], on Recombinant MAPKAPK2 (setting [1]), the IC50 was found to be 176 µM.

On to `N#Cc1ccc(-c2ccco2)nc1N` [Example 98], for which, on Recombinant MAPKAPK2 (setting [1]), the IC50 stood at 77.5 µM.

In the case of `Cc1ccc(-c2cc(-c3ccccc3Cl)c(C#N)c(N)n2)o1` [Example 148], the IC50 at Recombinant MAPKAPK2 (setting [1]) came to 192 µM.
